Measurements taken from patent US11318136B2, “Identification of granins as the pathogenic factor of alzheimer's disease and compositions and methods for inhibiting granin aggregation and treating alzheimer's disease” (priority 2018, dated 2022).

Experiments:
chromogranin A (CGA) = molecular target: T1, chromogranin A (CGA) (Bos taurus, UniProt P05059); assay: Metal-induced chromogranin A aggregation (turbidity); type: biochemical, bovine; details: 1 μM compound, pH 7.4; for Fe2+-induced chromogranin A aggregation / Cu2+-induced chromogranin A aggregation: chromogranin A 0.005 mg/ml (0.1 μM); for Zn2+-induced chromogranin A aggregation: chromogranin A 0.005 mg/ml
T1 construct: from tissue; host or cells: secretory granules of bovine adrenal medulla
T1 sequence (P05059 19-449): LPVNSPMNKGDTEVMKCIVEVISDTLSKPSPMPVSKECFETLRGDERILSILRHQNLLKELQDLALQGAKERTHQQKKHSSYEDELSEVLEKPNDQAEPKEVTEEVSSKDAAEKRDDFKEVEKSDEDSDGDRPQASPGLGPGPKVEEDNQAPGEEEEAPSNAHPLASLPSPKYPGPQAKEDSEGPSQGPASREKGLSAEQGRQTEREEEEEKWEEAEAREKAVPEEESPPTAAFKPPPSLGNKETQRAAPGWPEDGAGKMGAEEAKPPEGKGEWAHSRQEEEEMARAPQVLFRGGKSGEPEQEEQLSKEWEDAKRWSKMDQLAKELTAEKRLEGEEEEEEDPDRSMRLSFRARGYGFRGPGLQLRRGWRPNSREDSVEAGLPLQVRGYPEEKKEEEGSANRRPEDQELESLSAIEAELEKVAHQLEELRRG
Text: (§1) Materials: The major granin proteins, chromogranin A (CGA), chromogranin B (CGB), and secretogranin II (SgII) were purified from secretory granules of bovine adrenal medulla as described (Park et al., 2002; Yoo, 1995; Yoo and Albanesi, 1990). Chelex 100 was from Bio-Rad (U.S.A), and other chemicals were of highest purity that is commercially available. Purified native chromogranin B (c), secretogranin II (d), and chromogranin A (b) are illustrated in FIG. 4. The flavonoids, stilbenoids, and the other test compounds used in the present experiments were obtained from MedChem Express (U.S.A.), Sigma-Aldrich (U.S.A.), and Santa-Cruz Biotech. (U.S.A.), and the purity of all the compounds tested was 98% or higher.
(§2) Aggregation Experiments: Prior to aggregation studies, it is necessary to remove metal ions that had interacted with granins during purification process from granins through extensive treatments with chelating agents such as Chelex 100 (Bio-Rad, U.S.A) to dissociate the granin aggregates. For metal-induced aggregation studies, Chelex 100-treated CGA, CGB, or SgII in 2 mM MOPS, pH 7.4, was titrated with concentrated metal ions such as CuCl2, FeCl2, and ZnCl2. Aggregation was monitored by measuring the turbidity change with a Beckman DU640 uv/vis spectrophotometer. All the measurements were done at 24° C.
(§3) Materials: The major granin proteins, chromogranin A (CGA), chromogranin B (CGB), and secretogranin II (SgII) were purified from secretory granules of bovine adrenal medulla as described (Park et al., 2002; Yoo, 1995; Yoo and Albanesi, 1990). Chelex 100 was from Bio-Rad, and other chemicals were of highest purity that is commercially available.
as §2, with “100” for “100 (Bio-Rad, U.S.A)”, “Beckman” for “Beckman DU640 uv/vis”

chromogranin B (CGB) = molecular target: T2, chromogranin B (CGB) (Bos taurus, UniProt P23389); assay: Metal-induced chromogranin B aggregation (turbidity); type: biochemical, bovine; details: 1 μM compound, pH 7.4; for Cu2+-induced chromogranin B aggregation / Fe2+-induced chromogranin B aggregation: chromogranin B 0.005 mg/ml (0.06 μM)
T2 construct: from tissue; host or cells: secretory granules of bovine adrenal medulla
T2 sequence (P23389 21-646): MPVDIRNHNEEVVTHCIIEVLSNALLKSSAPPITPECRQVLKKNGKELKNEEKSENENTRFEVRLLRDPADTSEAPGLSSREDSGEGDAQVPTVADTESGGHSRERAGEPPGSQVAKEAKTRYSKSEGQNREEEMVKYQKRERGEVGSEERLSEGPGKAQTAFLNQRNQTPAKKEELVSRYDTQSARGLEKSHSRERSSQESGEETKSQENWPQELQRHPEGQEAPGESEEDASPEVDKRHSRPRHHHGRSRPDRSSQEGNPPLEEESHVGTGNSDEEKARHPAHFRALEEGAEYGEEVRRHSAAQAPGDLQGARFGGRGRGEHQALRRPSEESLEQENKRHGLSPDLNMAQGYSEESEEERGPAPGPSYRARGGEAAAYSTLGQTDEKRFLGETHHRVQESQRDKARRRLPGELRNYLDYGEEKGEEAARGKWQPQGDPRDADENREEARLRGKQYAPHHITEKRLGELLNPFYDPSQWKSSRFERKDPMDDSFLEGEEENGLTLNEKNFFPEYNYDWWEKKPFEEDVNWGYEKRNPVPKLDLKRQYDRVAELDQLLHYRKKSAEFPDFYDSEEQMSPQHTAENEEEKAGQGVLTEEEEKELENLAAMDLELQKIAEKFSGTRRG
Text: as §1, §2, §3
as §2, with “100” for “100 (Bio-Rad, U.S.A)”, “Beckman” for “Beckman DU640 uv/vis”

chromogranin B = molecular target: T3, chromogranin B (Bos taurus, UniProt P23389); assay: Dynamic light scattering, hydrodynamic state of chromogranin B; type: biochemical, bovine; details: chromogranin B 0.5 mg/ml (6 μM); 0.2 mM compound; 0.2 mM Fe2+; pH 7.4
T3 construct: from tissue; host or cells: secretory granules of bovine adrenal medulla
T3 sequence (P23389 21-646): T2 sequence (P23389 21-646)
Procedure: Molecular dynamic light scattering: To determine whether granins are in a monomer-to-oligomer state or in high molecular weight aggregate states in different solution conditions, dynamic light scattering experiments of granins were carried out with a DynaPro NanoStar of Wyatt Technology (Santa Barbara, Calif.) at 24° C., and the results were analyzed by a program (Dynamics 7.5.0) provided by the company.

secretogranin II (SgII) = molecular target: T4, secretogranin II (SgII) (Bos taurus, UniProt P20616); assay: Metal-induced secretogranin II aggregation (turbidity); type: biochemical, bovine; details: 1 μM compound, pH 7.4
T4 construct: from tissue; host or cells: secretory granules of bovine adrenal medulla
T4 sequence (P20616 31-613): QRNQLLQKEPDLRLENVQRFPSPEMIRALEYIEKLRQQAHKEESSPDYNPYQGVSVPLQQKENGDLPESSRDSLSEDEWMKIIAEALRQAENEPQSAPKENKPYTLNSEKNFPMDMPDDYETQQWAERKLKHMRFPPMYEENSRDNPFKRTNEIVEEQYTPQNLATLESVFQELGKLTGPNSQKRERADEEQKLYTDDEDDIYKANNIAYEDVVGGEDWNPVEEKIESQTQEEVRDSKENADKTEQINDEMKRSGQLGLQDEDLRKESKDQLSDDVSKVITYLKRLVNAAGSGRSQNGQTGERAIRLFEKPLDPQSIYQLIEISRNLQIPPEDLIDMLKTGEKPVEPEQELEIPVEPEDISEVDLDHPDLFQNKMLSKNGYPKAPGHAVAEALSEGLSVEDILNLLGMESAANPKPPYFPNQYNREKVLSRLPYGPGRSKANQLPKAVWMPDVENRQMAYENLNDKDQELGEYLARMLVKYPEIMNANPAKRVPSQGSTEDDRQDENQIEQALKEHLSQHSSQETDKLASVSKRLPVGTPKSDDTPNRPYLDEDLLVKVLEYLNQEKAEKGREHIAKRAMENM
Text: as §1, §2, §3
as §2, with “100” for “100 (Bio-Rad, U.S.A)”, “Beckman” for “Beckman DU640 uv/vis”

PC12 cells = assay: MTT cell toxicity assay, granin plus Cu2+ toxicity; type: cell-based; details: 0.1 μM chromogranin A, 0.06 μM chromogranin B, 0.07 μM secretogranin II, 20 μM Cu2+, 1 μM compound
Text: MTT cell toxicity assay: Cell toxicity assays were done using MTT cell proliferation assay kits from Invitrogen (U.S.A.) and 50,000 PC12 cells/well as described (Cheruvara et al., 2015; Shearman et al., 1994). The assays are designed to detect the level of MTT dye reduction by cells, and the resulting color changes at 570 nm are used as an indicator of cell viability (health). The healthier the cells the higher the color changes.

[1] = secretogranin II 0.005 mg/ml (0.07 μM)

COc1cc(OC)c2c(=O)cc(-c3ccccc3)oc2c1 [5,7-dimethoxyflavone]
Fe2+-induced chromogranin A aggregation (chromogranin A (CGA)): completely suppressed | Zn2+-induced chromogranin A aggregation (chromogranin A (CGA)): mostly suppressed

O=c1cc(-c2ccc(O)cc2)oc2cc(O)cc(O)c12 [apigenin]
Cu2+-induced chromogranin A aggregation (chromogranin A (CGA)): completely suppressed | Zn2+-induced chromogranin B aggregation (chromogranin B (CGB); chromogranin B 0.005 mg/ml): mostly suppressed

O=c1cc(-c2ccccc2)oc2cc(O)c(O)c(O)c12 [baicalein]
chromogranin B in large aggregate state (chromogranin B): 5.3% | chromogranin B remaining in low molecular weight oligomer state (chromogranin B): 94.7% | Fe2+-induced secretogranin II aggregation (secretogranin II (SgII); secretogranin II 0.01 mg/ml (0.14 μM)): completely suppressed | Cu2+-induced chromogranin B aggregation (chromogranin B (CGB)): mostly suppressed

Nc1ncnc2c1ncn2[C@@H]1O[C@H](CO)C[C@H]1O [cordycepin]
Fe2+-induced secretogranin II aggregation (secretogranin II (SgII); [1]): significantly suppressed | Cu2+-induced chromogranin A aggregation (chromogranin A (CGA)): mostly suppressed

O=c1c(O)c(-c2ccc(O)c(O)c2)oc2cc(O)ccc12 [fisetin]
Fe2+-induced secretogranin II aggregation (secretogranin II (SgII); [1]): completely suppressed | Fe2+-induced chromogranin A aggregation (chromogranin A (CGA)): completely suppressed

O=c1c(O)c(-c2ccc(O)cc2)oc2cc(O)cc(O)c12 [kaempferol]
Cu2+-induced secretogranin II aggregation (secretogranin II (SgII); [1]): mostly suppressed | Fe2+-induced chromogranin A aggregation (chromogranin A (CGA)): completely suppressed

O=c1cc(-c2ccc(O)c(O)c2)oc2cc(O)cc(O)c12 [luteolin]
granin-induced toxicity (cell toxicity, MTT) (PC12 cells): virtually stopped | Fe2+-induced secretogranin II aggregation (secretogranin II (SgII); [1]): mostly inhibited | Fe2+-induced chromogranin B aggregation (chromogranin B (CGB)): mostly inhibited

O=c1c(O)c(-c2ccc(O)cc2O)oc2cc(O)cc(O)c12 [morin]
Fe2+-induced chromogranin A aggregation (chromogranin A (CGA)): completely suppressed | Zn2+-induced chromogranin A aggregation (chromogranin A (CGA)): mostly suppressed

O=c1c(O)c(-c2cc(O)c(O)c(O)c2)oc2cc(O)cc(O)c12 [myricetin]
Fe2+-induced chromogranin A aggregation (chromogranin A (CGA)): completely suppressed | Fe2+-induced chromogranin B aggregation (chromogranin B (CGB)): completely suppressed

O=c1c(O)c(-c2ccc(O)c(O)c2)oc2cc(O)cc(O)c12 [quercetin]
Fe2+-induced secretogranin II aggregation (secretogranin II (SgII); [1]): completely suppressed | Cu2+-induced chromogranin B aggregation (chromogranin B (CGB)): completely suppressed

Oc1ccc(C=Cc2cc(O)cc(O)c2)cc1 [resveratrol]
Zn2+-induced secretogranin II aggregation (secretogranin II (SgII); [1]): significantly suppressed | Fe2+-induced chromogranin B aggregation (chromogranin B (CGB)): mostly suppressed

COc1ccc(-c2cc(=O)c3c(OC)c(OC)c(OC)c(OC)c3o2)cc1 [tangeretin]
Cu2+-induced chromogranin A aggregation (chromogranin A (CGA)): mostly suppressed | Fe2+-induced chromogranin B aggregation (chromogranin B (CGB)): completely suppressed

COc1cc2ncnc(Nc3cccc(Cl)c3)c2cc1OC [tyrphostin AG1478]
Fe2+-induced secretogranin II aggregation (secretogranin II (SgII); [1]): significantly suppressed | Fe2+-induced chromogranin A aggregation (chromogranin A (CGA)): significantly suppressed

epigallocatechin 3-gallate [EGCG]
Cu2+-induced secretogranin II aggregation (secretogranin II (SgII); [1]): mostly suppressed | Fe2+-induced secretogranin II aggregation (secretogranin II (SgII); [1]): completely suppressed
